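In this assay, cells in 96-well plates receive the compound at five concentrations for 48 hours. Endpoints are linearly interpolated between the surrounding concentrations. GI50 marks 50% less growth.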 Calls of active or inactive are those of the source. Cut-off read from the data, not from the text of the source: active = GI50 up to about 1.1 µM and inactive = higher.
Experiments:
Assay in all cases: NCI-60 cell line screen, 48 h
786-0 = test system: 786-0
COLO 205 = test system: COLO 205
DU-145 = test system: DU-145
HOP-62 = test system: HOP-62
K562 = test system: K562
LOX IMVI = test system: LOX IMVI
NCI-H226 = test system: NCI-H226
NCI-H460 = test system: NCI-H460
OVCAR-3 = test system: OVCAR-3
OVCAR-8 = test system: OVCAR-8
RPMI-8226 = test system: RPMI-8226
RXF 393 = test system: RXF 393
SK-OV-3 = test system: SK-OV-3
SNB-19 = test system: SNB-19
SNB-75 = test system: SNB-75
SW-620 = test system: SW-620
TK-10 = test system: TK-10
U-251 = test system: U-251
UACC-62 = test system: UACC-62
A498 = test system: A498

Measured: GI50

NCCCc1nonc1C(=O)O
inactive: 786-0 > 100 µM | COLO 205 > 100 µM | DU-145 > 100 µM | HOP-62 > 100 µM | K562 > 100 µM | LOX IMVI > 100 µM | NCI-H226 > 100 µM | NCI-H460 > 100 µM | OVCAR-3 > 100 µM | OVCAR-8 > 100 µM | RPMI-8226 > 100 µM | RXF 393 > 100 µM | SK-OV-3 > 100 µM | SNB-19 > 100 µM | SNB-75 > 100 µM | SW-620 > 100 µM | TK-10 > 100 µM | U-251 > 100 µM | UACC-62 > 100 µM

CC[C@@H]1C[C@@H](O)[C@@H]2[C@H](O)[C@H](O)CN2C1
inactive: 786-0 > 100 µM | A498 > 100 µM | COLO 205 > 100 µM | DU-145 > 100 µM | K562 > 100 µM | LOX IMVI > 100 µM | NCI-H226 > 100 µM | NCI-H460 > 100 µM | OVCAR-3 > 100 µM | OVCAR-8 > 100 µM | RPMI-8226 > 100 µM | SK-OV-3 > 100 µM | SNB-19 > 100 µM | SNB-75 22.3 µM | SW-620 > 100 µM | TK-10 > 100 µM | U-251 > 100 µM | UACC-62 > 100 µM

CC(=O)C1C(=O)C(=O)N(c2cccc([N+](=O)[O-])c2)C1=O (centres undefined)
inactive: 786-0 > 100 µM | COLO 205 > 100 µM | DU-145 > 100 µM | HOP-62 > 100 µM | LOX IMVI > 100 µM | NCI-H226 > 100 µM | NCI-H460 > 100 µM | OVCAR-3 > 100 µM | OVCAR-8 > 100 µM | RXF 393 > 100 µM | SK-OV-3 > 100 µM | SNB-19 > 100 µM | SNB-75 > 100 µM | SW-620 > 100 µM | TK-10 > 100 µM | U-251 > 100 µM | UACC-62 > 100 µM

COC(=O)CCCC(=O)NC1=C(Nc2ccc(OC)cc2)C(=O)c2ccccc2C1=O
inactive: 786-0 34.6 µM | A498 20.7 µM | COLO 205 25.4 µM | DU-145 16.3 µM | K562 23.9 µM | LOX IMVI 25.9 µM | NCI-H460 15.9 µM | OVCAR-3 6.25 µM | OVCAR-8 31 µM | RPMI-8226 26.4 µM | SK-OV-3 34.1 µM | SNB-19 42.7 µM | SNB-75 32.2 µM | SW-620 40.7 µM | TK-10 > 100 µM | U-251 31.4 µM | UACC-62 12.8 µM

CCOC(=O)C1Cc2ccc(C)cc2C1=O (centres undefined)
inactive: 786-0 > 100 µM | COLO 205 > 100 µM | DU-145 > 100 µM | HOP-62 > 100 µM | K562 31.4 µM | LOX IMVI 62.5 µM | NCI-H226 > 100 µM | NCI-H460 > 100 µM | OVCAR-3 46.9 µM | OVCAR-8 > 100 µM | RPMI-8226 41.1 µM | SK-OV-3 > 100 µM | SNB-75 > 100 µM | SW-620 88.1 µM | TK-10 > 100 µM | U-251 58.1 µM | UACC-62 49.1 µM

Cc1cn(C2CC(ON3C(=O)c4ccccc4C3=O)C(CO)O2)c(=O)[nH]c1=O (centres undefined)
inactive: 786-0 > 10 µM | DU-145 > 10 µM | K562 > 10 µM | LOX IMVI > 10 µM | NCI-H226 > 10 µM | NCI-H460 > 10 µM | OVCAR-3 > 10 µM | OVCAR-8 > 10 µM | RXF 393 > 10 µM | SK-OV-3 > 10 µM | SNB-19 > 10 µM | SNB-75 > 10 µM | SW-620 > 10 µM | TK-10 > 10 µM | U-251 > 10 µM | UACC-62 > 10 µM

N#CC(C#N)=Cc1ccc2c(c1)OC(Cl)O2 (centres undefined)
inactive: 786-0 20.3 µM | COLO 205 24.3 µM | DU-145 27.7 µM | K562 11.8 µM | LOX IMVI 18.4 µM | NCI-H226 20.2 µM | OVCAR-3 22.1 µM | OVCAR-8 31.6 µM | RPMI-8226 17.8 µM | RXF 393 28.5 µM | SK-OV-3 28.5 µM | SNB-19 26.4 µM | SNB-75 25.8 µM | SW-620 > 10 µM | TK-10 29.6 µM | U-251 23.2 µM | UACC-62 22.5 µM

CCC(=O)C(C(C)/C=C/CCSc1ccccc1)C(O)CCCCCC(=O)OC (centres undefined)
inactive: 786-0 > 100 µM | COLO 205 > 100 µM | DU-145 > 100 µM | HOP-62 > 100 µM | K562 46.3 µM | LOX IMVI 81.3 µM | NCI-H226 > 100 µM | NCI-H460 > 100 µM | OVCAR-3 > 100 µM | OVCAR-8 > 100 µM | RPMI-8226 > 100 µM | RXF 393 > 100 µM | SK-OV-3 > 100 µM | SNB-19 > 100 µM | SNB-75 > 100 µM | SW-620 > 100 µM | TK-10 > 100 µM | U-251 77.8 µM | UACC-62 71.9 µM

Cn1c(=O)c2nc(Nc3ccccc3)[nH]c2n(C)c1=O
inactive: 786-0 > 10 µM | COLO 205 > 10 µM | DU-145 > 10 µM | HOP-62 > 10 µM | K562 > 10 µM | LOX IMVI > 10 µM | OVCAR-8 > 10 µM | RPMI-8226 > 10 µM | RXF 393 > 10 µM | SK-OV-3 > 10 µM | SNB-75 > 10 µM | SW-620 > 10 µM | TK-10 > 10 µM | UACC-62 > 10 µM

CN1C(=O)CC2CCC(=O)N2c2cccnc21 (centres undefined)
inactive: 786-0 > 100 µM | COLO 205 > 100 µM | DU-145 > 100 µM | HOP-62 > 100 µM | K562 > 100 µM | LOX IMVI > 100 µM | NCI-H226 > 100 µM | NCI-H460 > 100 µM | OVCAR-3 > 100 µM | OVCAR-8 > 100 µM | RPMI-8226 > 100 µM | SNB-19 > 100 µM | SW-620 > 100 µM | TK-10 > 100 µM | U-251 > 100 µM | UACC-62 75.5 µM

C=C(C)[C@H]1CC[C@@]2(C)C(C1)[C@H](C)CC[C@@H]2O (some centres undefined)
inactive: 786-0 > 100 µM | A498 > 100 µM | COLO 205 > 100 µM | HOP-62 > 100 µM | K562 > 100 µM | LOX IMVI > 100 µM | NCI-H226 > 100 µM | NCI-H460 > 100 µM | OVCAR-3 > 100 µM | OVCAR-8 > 100 µM | RPMI-8226 > 100 µM | RXF 393 > 100 µM | SK-OV-3 > 100 µM | SNB-19 > 100 µM | SNB-75 > 100 µM | SW-620 > 100 µM | TK-10 > 100 µM | U-251 > 100 µM | UACC-62 > 100 µM

Source: ChEMBL document CHEMBL1201862, “PubChem BioAssay data set” (2004)
